From ChEMBL document CHEMBL1806429, “Angiotensin-I-converting enzyme inhibitory peptides: Chemical feature based pharmacophore generation” (Eur J Med Chem, 2011) come the findings set out here.

This test has as its target T1, Angiotensin-converting enzyme (Oryctolagus cuniculus, UniProt P12822).
T1 sequence (P12822 whole entry): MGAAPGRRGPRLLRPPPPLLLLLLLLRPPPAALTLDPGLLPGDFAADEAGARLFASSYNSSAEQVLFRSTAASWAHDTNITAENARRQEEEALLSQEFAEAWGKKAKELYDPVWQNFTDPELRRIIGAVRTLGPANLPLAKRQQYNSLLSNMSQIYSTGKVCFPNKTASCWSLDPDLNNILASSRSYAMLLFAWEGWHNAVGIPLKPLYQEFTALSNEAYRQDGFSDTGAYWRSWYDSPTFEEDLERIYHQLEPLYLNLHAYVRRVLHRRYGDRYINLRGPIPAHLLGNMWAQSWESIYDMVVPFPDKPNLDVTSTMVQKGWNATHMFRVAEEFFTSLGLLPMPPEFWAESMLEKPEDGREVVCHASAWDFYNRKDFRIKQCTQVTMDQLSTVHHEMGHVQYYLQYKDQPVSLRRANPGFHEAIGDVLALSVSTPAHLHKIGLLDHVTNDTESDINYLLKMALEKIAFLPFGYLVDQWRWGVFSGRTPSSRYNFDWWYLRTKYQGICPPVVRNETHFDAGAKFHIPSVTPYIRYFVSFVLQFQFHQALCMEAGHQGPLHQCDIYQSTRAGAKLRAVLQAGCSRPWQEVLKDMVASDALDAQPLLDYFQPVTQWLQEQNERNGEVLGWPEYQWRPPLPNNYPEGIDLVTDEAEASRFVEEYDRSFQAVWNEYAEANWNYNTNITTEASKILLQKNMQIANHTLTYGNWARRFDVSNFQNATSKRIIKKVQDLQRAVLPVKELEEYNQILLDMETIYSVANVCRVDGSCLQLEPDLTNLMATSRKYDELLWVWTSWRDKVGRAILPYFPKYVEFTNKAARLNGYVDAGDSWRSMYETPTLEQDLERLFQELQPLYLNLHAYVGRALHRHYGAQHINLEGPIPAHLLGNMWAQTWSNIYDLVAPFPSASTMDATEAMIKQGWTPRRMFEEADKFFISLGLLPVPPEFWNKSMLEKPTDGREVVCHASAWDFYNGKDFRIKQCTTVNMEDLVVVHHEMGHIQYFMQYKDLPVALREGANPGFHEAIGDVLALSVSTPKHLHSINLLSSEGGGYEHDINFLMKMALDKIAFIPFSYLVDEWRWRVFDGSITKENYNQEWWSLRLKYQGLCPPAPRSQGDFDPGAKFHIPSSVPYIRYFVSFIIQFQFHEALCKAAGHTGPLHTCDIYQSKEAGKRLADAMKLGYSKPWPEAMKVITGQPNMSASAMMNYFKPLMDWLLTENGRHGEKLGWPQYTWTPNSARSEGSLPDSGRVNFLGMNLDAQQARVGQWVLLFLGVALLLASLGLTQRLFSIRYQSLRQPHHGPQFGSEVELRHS
The test can be described thus: Inhibition of rabbit lung ACE preincubated for 5 mins by spectrophotometric assay.

Residues, ends and D or L forms follow the SMILES beside them.

Regarding `C[C@H](N)C(=O)NCC(=O)O` (H-Ala-Gly-OH), the IC50 worked out at 2500 µM.

`C[C@H](N)C(=O)N[C@@H](Cc1c[nH]cn1)C(=O)O` (H-Ala-His-OH): 9000 µM corresponded to half-maximal inhibition (IC50).

`CC(C)[C@H](NC(=O)[C@H](C)N)C(=O)O` (H-Ala-Val-OH) showed an IC50 of 300 µM.

Take `CC(C)[C@H](NC(=O)[C@H](C)N)C(=O)N1CCC[C@H]1C(=O)O` (H-Ala-Val-Pro-OH): the IC50 is 340 µM.

The molecule `C[C@H](NC(=O)[C@@H](N)CCCNC(=N)N)C(=O)N1CCC[C@H]1C(=O)O` (H-Arg-Ala-Pro-OH) returned a concentration for half-maximal inhibition (IC50) of 16 µM.

For `NC(N)=NCCC[C@H](N)C(=O)N[C@@H](CO)C(=O)N1CCC[C@H]1C(=O)O` (H-Arg-Ser-Pro-OH), it took 248 µM to reach half-maximal inhibition (IC50).

With `CC(C)[C@H](NC(=O)[C@@H](N)Cc1ccccc1)C(=O)N[C@@H](C)C(=O)N1CCC[C@H]1C(=O)O` (H-FVAP-OH), the IC50 is 10 µM.

`NCC(=O)N[C@@H](CCC(=O)O)C(=O)O` (H-Gly-Glu-OH) gave an IC50 of 5400 µM.

On to `NCCCC[C@H](NC(=O)CN)C(=O)O` (H-Gly-Lys-OH), for which the IC50 is 5400 µM.

`CC[C@H](C)[C@H](N)C(=O)N1CCC[C@H]1C(=O)O` (H-Ile-Pro-OH) yielded an IC50 of 150 µM.

On to `CC[C@H](C)[C@H](N)C(=O)N[C@@H](Cc1ccc(O)cc1)C(=O)O` (H-Ile-Tyr-OH), for which the IC50 stood at 3.7 µM.

Take `CC(C)C[C@H](N)C(=O)N[C@@H](C)C(=O)N1CCC[C@H]1C(=O)O` (H-Leu-Ala-Pro-OH): the IC50 came to 0.7 µM.

The molecule `CC(C)C[C@H](N)C(=O)N[C@@H](CC(N)=O)C(=O)N[C@@H](Cc1ccc(O)cc1)C(=O)O` (H-Leu-Asn-Tyr-OH) showed an IC50 of 81 µM.

`CC(C)C[C@H](N)C(=O)N[C@@H](CCCCN)C(=O)N1CCC[C@H]1C(=O)O` (H-Leu-Lys-Pro-OH): 0.32 µM corresponded to half-maximal inhibition (IC50).

`NCCCC[C@H](NC(=O)CNC(=O)[C@@H](N)Cc1ccccc1)C(=O)O` (H-Phe-Gly-Lys-OH) returned an IC50 of 160 µM.

`N[C@@H](Cc1ccccc1)C(=O)N1CCC[C@H]1C(=O)O` (H-Phe-Pro-OH): the IC50 came to 210 µM.

`N[C@@H](Cc1ccccc1)C(=O)N1CCC[C@H]1C(=O)N1CCC[C@H]1C(=O)O` (H-Phe-Pro-Pro-OH) displayed an IC50 of 78 µM.

With `O=C(NCC(=O)N1CCC[C@H]1C(=O)O)[C@@H]1CCCN1` (H-Pro-Gly-Pro-OH), half-maximal inhibition (IC50) required 97.3 µM.

In turn, `CC(C)C[C@H](NC(=O)[C@@H]1CCCN1)C(=O)N[C@@H](Cc1c[nH]c2ccccc12)C(=O)O` (H-Pro-Leu-Trp-OH) yielded an IC50 of 36 µM.

With `CC(C)C[C@H](NC(=O)[C@@H]1CCCN1C(=O)[C@@H]1CCCN1)C(=O)O` (H-Pro-Pro-Leu-OH), the concentration for half-maximal inhibition (IC50) is 427 µM.

In the case of `O=C(N[C@@H](Cc1ccc(O)cc1)C(=O)N1CCC[C@H]1C(=O)O)[C@@H]1CCCN1` (H-Pro-Tyr-Pro-OH), the half-inhibitory concentration (IC50) turned out to be 220 µM.

In turn, `N[C@@H](Cc1ccc(O)cc1)C(=O)N1CCC[C@H]1C(=O)O` (H-Tyr-Pro-OH) registered an IC50 of 720 µM.

On to `CC(C)[C@H](N)C(=O)N[C@@H](C)C(=O)N1CCC[C@H]1C(=O)O` (H-Val-Ala-Pro-OH), for which the IC50 came to 2 µM.

In turn, `CC(C)[C@H](N)C(=O)N[C@@H](Cc1ccc(O)cc1)C(=O)O` (H-Val-Tyr-OH) had an IC50 of 7 µM.
